From PubChem BioAssay AID1626 (SRMLSC, 2009)

System: M. tuberculosis H37Rv growth inhibition
Experiment: M. tuberculosis H37Rv growth inhibitors, H37Rv strain (AID 1626)
Details: for IC90: measured here: IC90 against H37Rv; for CC50: measured here: Vero cell cytotoxicity

| Structure (SMILES) | IC50 | IC90 | CC50 |
| --- | --- | --- | --- |
| Cc1ccsc1C(=O)Nc1nc2ccccc2[nH]1 | 20.4 µM | > 100 µM | 25.3 µM |
| COC(=O)CSc1nnc(-c2ccc(OC)c(OC)c2)o1 | 1.43 µM | 5.53 µM | – |
| CCCCn1c(O)c(C(C)=Nc2ccc(OCC)cc2)c(=O)[nH]c1=O | 5.45 µM | > 100 µM | > 40 µM |
| O=C(Nc1nnc(-c2ccccn2)o1)c1cccc(Br)c1 | 12.4 µM | > 100 µM | > 40 µM |
| Cc1nc2ccc(NC(=O)C(F)(F)F)cc2o1 | – | > 100 µM | – |
| Nc1nc(N)c2cc(Sc3ccc4ccccc4c3)ccc2n1 | 1.61 µM | 3.16 µM | 1.01 µM |
| Cc1cc(C)nc(/N=C(\N)Nc2ccc(-c3ccccc3)cc2)n1 | 2.74 µM | 11 µM | > 40 µM |
| CCC(=O)Nc1nc2ccccc2n1Cc1ccccc1C | 1.47 µM | > 100 µM | > 40 µM |
| O=[N+]([O-])c1cccn2cc(-c3ccc(Br)cc3)nc12 | 18.8 µM | > 100 µM | 27.1 µM |
| O=C(/C=C/c1ccccc1)CC(=O)c1ccccc1O | 23.7 µM | > 100 µM | > 40 µM |
| CCOC(=O)c1ccc(NC(=O)CCOc2ccc(OC)cc2)cc1 | 9.49 µM | > 100 µM | – |
| Cn1c(NC(=O)c2cccc(Cn3cc(Cl)cn3)c2)nc2ccccc21 | – | – | > 40 µM |
| Cc1nn(-c2ccccc2)c2c1C(c1ccc([N+](=O)[O-])cc1)N1C(=N2)C(=O)Nc2ccccc21 (configuration not stated) | 19.1 µM | > 100 µM | > 40 µM |
| CCOC(=O)Nc1ccc(C(=O)Oc2ccccc2)c(O)c1 | < 0.195 µM | > 100 µM | > 40 µM |
| COc1ccc(NC(=O)CSCc2ccc(C)cc2)cc1 | 26.5 µM | > 100 µM | – |
| O=C1C2C3C=CC(C3)C2C(=O)N1c1ccc(-c2nc3ccccc3c(=O)o2)cc1 (configuration not stated) | 9.33 µM | 23.1 µM | – |
| Nc1ccc2c(c1)oc1ccccc12 | 1.96 µM | > 100 µM | – |
| Nc1ncnc(Oc2cccc3cccnc23)c1[N+](=O)[O-] | 6.19 µM | 6.94 µM | 37.1 µM |
| COc1cccc(C(=O)Nc2nc(-c3ccccc3)c(-c3ccccc3)o2)c1 | < 0.195 µM | 6.62 µM | > 40 µM |
| COC(=O)C1C(O)C(C)C(O)C(C)(O)/C=C\C=C(/C)C(=O)Nc2c(C)c(OC(C)=O)c3c(c2O)C(=O)C(C)=C2OCOC(=C23)/C(C)=C/C(C)(O)C(O)C(C)C1O (configuration not stated) | 0.32 µM | 0.878 µM | – |

| Structure (SMILES) | IC50 | IC90 | CC50 |
| --- | --- | --- | --- |
| Oc1cccc2ccc(/C=C/c3cccs3)nc12 | 1.49 µM | 4.51 µM | > 40 µM |
| CCOC(=O)c1ccc(NC(=O)Cn2cccc2)cc1 | – | > 100 µM | – |
| CCOc1[nH]n(-c2ccccc2)c(=O)c1C=Nc1ccc(OC)cc1 | – | > 100 µM | – |
| O=C(/C=C/c1ccc(Br)cc1)c1ccco1 | 14.5 µM | 21.3 µM | > 40 µM |
| CCOc1ccc(NC(=O)N(C2CCCCCC2)C2CCN(C(C)=O)CC2)cc1 | – | > 100 µM | – |
| COc1cccc(/C=C2\Sc3ccc(C(=O)NCc4cccnc4)cc3N(C)C2=O)c1 | 2.83 µM | 6.21 µM | > 40 µM |
| CC(=O)Nc1nc2ccccc2n1Cc1ccccc1C | 0.2 µM | 81 µM | 22.5 µM |
| Oc1ccccc1N1CCN(c2ncnc3sc(-c4ccccc4)cc23)CC1 | 9.21 µM | 13 µM | > 40 µM |
| O=C(Nc1nnc(-c2ccc(F)cc2)o1)c1cc(Cl)sc1Cl | < 0.195 µM | 2.86 µM | 18.2 µM |
| COc1ccc2nc(N=Nc3ccc(O)c4ccccc34)sc2c1 | 5.17 µM | 10.1 µM | 4.6 µM |
| CC(=O)n1cc(N(C(=O)CCl)c2ccc([N+](=O)[O-])cc2)c2ccccc21 | 14 µM | 30.3 µM | 14.7 µM |
| COc1ccc(N/C=C2\CCc3ccccc3C2=O)cc1 | – | > 100 µM | > 40 µM |
| COc1cc(C)c(/C=C/C(C)=C/C=C/C(C)=C/C(=O)O)c(C)c1C | 0.488 µM | > 100 µM | > 40 µM |
| CC(C)(C)C(=O)/C=C/Nc1ccccc1O | 2.55 µM | 3.93 µM | > 40 µM |
| O=C(/C=C/c1ccccc1)C1C(=O)c2ccccc2C1=O | 23.5 µM | 26.5 µM | 32.1 µM |
| Fc1ccc(C(c2ccc(F)cc2)N2CCN(C/C=C/c3ccccc3)CC2)cc1 | 7.94 µM | 10.1 µM | > 40 µM |
| O=C(COc1ccc(Cl)cc1)Nc1ccc2c(c1)CCC2 | 12.6 µM | > 100 µM | – |
| Cc1cc(N2CCN(c3ccccc3)CC2)nc(-n2nc(C)cc2C)n1 | 8.84 µM | 47.3 µM | 18.3 µM |
| CN1CCN(C2=Cc3ccc(Cl)cc3Sc3ccc(F)cc32)CC1 | 10.9 µM | 12.3 µM | 33.9 µM |
| CC(C)(C)c1ccc(OCCCC(=O)NC2=NCCS2)cc1 | 11.8 µM | > 100 µM | > 40 µM |
